Tested on: brain tissue
Assay: Individual peptide variants of A3 on phage, brain selectivity index vs T7-lacZ
Type: in vivo, FVB or BALB/c mice
Settings: 2 hours circulation; for Brain Targeting Activity: 0.5-1×10^10 pfu co-injected with T7-lacZ; for Selectivity index (BALB/C mice) / Selectivity index (FVB female): brain tissue; for Selectivity index (FVB female): FVB female mice
Procedure: In this example, various individual peptide variants of A3 were tested in vivo for their ability to target brain or other tissues. […] The phage contents of each organ were determined by plaque assay in the presence of X-gal (500 μg/mL) in top agar.
Thus, selectively indices of less than 10 are considered low, those between 10 and […] are considered moderate and those over 100 are considered high.

Substance	Brain Targeting Activity	Selectivity index (BALB/C mice)	Brain Targeting Activity (listed as A4G)	Selectivity index (FVB female)	Brain Targeting Activity (listed as A2G)
CAGDSMCY [reference compound]	negative and No	0.9			
CAGGLCY	No		loss of brain targeting activity	0.9	
CALCY	No			0.8	
CDITEYC [reference compound]	No	1		0.4	
CGADALCY	No	1			
CGALCY	No			0.8	
CGFDMPC [reference compound]	No			0.5	
CGGALCY	No			0.7	loss of brain targeting activity
CLCY	No			3.5	
CPADCY [reference compound]	No			0.3	
CRDVNECD [reference compound]	No	1		0.3	
CYGDPC [reference compound]	No			0.8	
YCDAPC [reference compound]	No			0.7	

Reference: patent US20040110681A1, “Method to identify targeting molecules” (priority 2002, published 2004)
